Laboratory results reported in patent publication US6774086B2, “3-Aminocarbonyl-substituted benzoylcyclohexanediones” (Bayer CropScience GmbH, priority 2001, dated 2004).

Tests used:
Type in all cases: in vivo
Amaranthus retroflexus [1] = assay: pre-emergence herbicidal action; settings: 320 g a.i./ha, scored visually after 3 to 4 weeks vs untreated controls
From the text: (§1) Seeds of mono- and dicotyledonous harmful plants are placed in sandy loam in cardboard pots and covered with soil. The compounds according to the invention, which are formulated in the form of wettable powders or emulsion concentrates, are then applied to the surface of the soil cover as aqueous suspension or emulsion at a dosage rate stated in table B1 with an application rate of 600 to 800 l of water per ha (converted). After the treatment, the pots are placed into a greenhouse and kept under good growth conditions for the harmful plants. The damage to the plants or their emergence is scored visually after the test plants have emerged after an experimental time of 3 to 4 weeks by comparison with untreated controls.

Sinapis arvensis [2] = assay: pre-emergence herbicidal action; settings: 320 g a.i./ha, scored visually after 3 to 4 weeks vs untreated controls
From the text: as §1

Stellaria media [3] = assay: pre-emergence herbicidal action; settings: 320 g a.i./ha, scored visually after 3 to 4 weeks vs untreated controls
From the text: as §1

Amaranthus retroflexus [4] = assay: post-emergence herbicidal action; settings: three-leaf stage, 320 g a.i./ha, scored after approx. 3 to 4 weeks
Experimental: (§2) Seeds of mono- and dicotyledonous harmful plants are placed in sandy loam in cardboard pots, covered with soil and grown in the greenhouse under good growth conditions. 2 to 3 weeks after sowing, the test plants are treated in the three-leaf stage. The compounds according to the invention, which are formulated as wettable powders or as emulsion concentrates, are sprayed at a dosage rate stated in table B2 to the surface of the green plant parts at an application rate of 600 to 800 l of water per ha (converted). After the test plants have been left to stand in the greenhouse for approx. 3 to 4 weeks under optimal growth conditions, the effect of the compounds is scored by comparison with compounds of the prior art.

Sinapis arvensis [5] = assay: post-emergence herbicidal action; settings: three-leaf stage, 320 g a.i./ha, scored after approx. 3 to 4 weeks
Experimental: as §2

Stellaria media [6] = assay: post-emergence herbicidal action; settings: three-leaf stage, 320 g a.i./ha, scored after approx. 3 to 4 weeks
Experimental: as §2

Oryza sativa = assay: post-emergence action, crop plant damage
Cyperus serotinus = assay: post-emergence action against harmful plants
Experimental: as §2
(§3) In further greenhouse experiments, seeds of barley and of monocotyledonous and dicotyledonous harmful plants are placed in sandy loam, covered with soil and placed in the greenhouse until the plants have developed two to three true leaves. Then, they are treated with the compounds of the formula (I) according to the invention as described above under item 2.

Monochoria vaginalis = assay: post-emergence action against harmful plants
Experimental: as §2, §3

Sagittaria pygmaea = assay: post-emergence action against harmful plants
Experimental: as §2, §3

| Compound | Action against harmful plants AMARE (Amaranthus retroflexus [1]) | Action against harmful plants SINAL (Sinapis arvensis [2]) | Action against harmful plants STEME (Stellaria media [3]) | Action against harmful plants AMARE (Amaranthus retroflexus [4]) | Action against harmful plants SINAL (Sinapis arvensis [5]) | Action against harmful plants STEME (Stellaria media [6]) | Crop plant damage ORYSP (Oryza sativa; 50 g a.i./ha) | Action against harmful plants CYPSE (Cyperus serotinus; 50 g a.i./ha) | Action against harmful plants MOOVA (Monochoria vaginalis; 50 g a.i./ha) | Action against harmful plants SAGPY (Sagittaria pygmaea; 50 g a.i./ha) | Crop plant damage ORYSP (Oryza sativa; 90 g a.i./ha) | Action against harmful plants CYPSE (Cyperus serotinus; 90 g a.i./ha) | Action against harmful plants MOOVA (Monochoria vaginalis; 90 g a.i./ha) | Action against harmful plants SAGPY (Sagittaria pygmaea; 90 g a.i./ha) |
| --- | --- | --- | --- | --- | --- | --- | --- | --- | --- | --- | --- | --- | --- | --- |
| CCN(CC)C(=O)COc1c(Br)ccc(C(=O)C2=C(O)CCCC2=O)c1Br [Compound 3.65] | 90% | 80% | 90% | 80% | 90% | 100% | 0% | 99% | 99% | 80% | – | – | – | – |
| CCN(CC)C(=O)COc1c(Cl)ccc(C(=O)C2=C(O)CCCC2=O)c1Cl [Compound 3.9] | 90% | 80% | 90% | 80% | 90% | 100% | – | – | – | – | 0% | 95% | 95% | 90% |
| CN(C(=O)COc1c(S(C)(=O)=O)ccc(C(=O)C2=C(O)CCCC2=O)c1Cl)c1ccccc1 [Compound 1.28] | 90% | 90% | 90% | – | – | – | – | – | – | – | – | – | – | – |
